Data as given in BindingDB's records for patent US20240010684 (Bayer Aktiengesellschaft, 2024).
Where a SMILES comes first, the peptide text is derived from it. Bridges are numbered along the chain shown (N, C = ends). [ ]: non-standard residue; d: D form. Oic = O=C(O)[C@@H]1C[C@@H]2CCCC[C@@H]2N1; Pen = CC(C)(S)[C@H](N)C(=O)O

Columns and labels:
[1] = target: T1, Mannan-binding lectin serine protease 1 (Homo sapiens, UniProt P48740); assay: Biochemical Human MASP1 Assay
T1 sequence (P48740 whole entry): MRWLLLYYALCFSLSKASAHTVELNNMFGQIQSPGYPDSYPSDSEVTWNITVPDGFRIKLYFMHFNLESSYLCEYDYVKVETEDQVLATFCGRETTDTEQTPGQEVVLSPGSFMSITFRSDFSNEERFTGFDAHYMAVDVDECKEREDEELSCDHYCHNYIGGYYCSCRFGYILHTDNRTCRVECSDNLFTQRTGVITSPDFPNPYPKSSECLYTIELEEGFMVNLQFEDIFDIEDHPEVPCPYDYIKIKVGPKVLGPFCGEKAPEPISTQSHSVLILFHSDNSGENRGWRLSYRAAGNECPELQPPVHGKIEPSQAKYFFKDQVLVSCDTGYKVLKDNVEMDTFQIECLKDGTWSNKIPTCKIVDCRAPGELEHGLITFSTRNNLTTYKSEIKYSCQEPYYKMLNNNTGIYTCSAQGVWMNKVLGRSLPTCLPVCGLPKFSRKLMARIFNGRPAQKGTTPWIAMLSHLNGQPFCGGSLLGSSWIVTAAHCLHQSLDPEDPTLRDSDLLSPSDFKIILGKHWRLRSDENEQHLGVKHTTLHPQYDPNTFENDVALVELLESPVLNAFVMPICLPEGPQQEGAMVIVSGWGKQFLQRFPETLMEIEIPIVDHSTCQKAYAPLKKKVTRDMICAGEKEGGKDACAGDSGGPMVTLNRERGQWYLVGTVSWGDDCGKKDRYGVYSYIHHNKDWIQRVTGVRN
Protocol: Recombinant human MASP1 enzyme produced in the HEK 293 cells was diluted in the reaction buffer (50 mM HEPES pH 8,0; 100 mM NaCl; 0,01% CHAPS; 0.5 mM Gluthathione) to the concentration of 20 nM and 25 μl was transferred into each single well of 384-well white microtiter plate (Greiner Bio One 781075). 1 μl of the inhibitor compound solution (dissolved in DMSO, at the corresponding concentration) or pure DMSO as a control was added to the same wells. The enzymatic reaction was initiated by addition of 25 μl of 20 μM solution of the FRET substrate ABZ-[…]-Lys (Dnp)-NH2; (ABZ-2-aminobenzoyl; DNP 2,4-dinitrophenyl; custom synthesis by Jerini Peptide Technologies, Berlin) in the reaction buffer. The microtiter plate was incubated for 60-120 min at the temperature of 32 C. The increase of fluorescence intensity was measured in appropriate fluorescence plate reader (e.g. TECAN Ultra) using excitation wavelength of 320 nm and emission wavelength of 420 nm. IC50 values were calculated from percentage of inhibition of human MASP1 activity as a function of test compound concentration.

[2] = target: Mannan-binding lectin serine protease 2 (Homo sapiens, UniProt O00187); assay: Biochemical Human MASP2 Assay
Mannan-binding lectin serine protease 2 (Homo sapiens, UniProt O00187), sequence (O00187 16-444 limits assumed): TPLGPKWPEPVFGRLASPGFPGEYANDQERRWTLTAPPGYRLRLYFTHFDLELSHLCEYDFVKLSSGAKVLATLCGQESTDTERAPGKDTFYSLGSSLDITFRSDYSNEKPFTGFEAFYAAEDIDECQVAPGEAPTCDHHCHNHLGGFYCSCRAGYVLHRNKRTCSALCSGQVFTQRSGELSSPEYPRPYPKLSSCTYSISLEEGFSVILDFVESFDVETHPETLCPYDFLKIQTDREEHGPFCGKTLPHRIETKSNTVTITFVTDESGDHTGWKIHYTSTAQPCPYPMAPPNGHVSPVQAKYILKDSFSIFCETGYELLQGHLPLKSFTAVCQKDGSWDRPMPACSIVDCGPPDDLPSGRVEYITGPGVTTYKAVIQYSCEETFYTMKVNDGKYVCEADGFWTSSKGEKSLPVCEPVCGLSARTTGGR
Mannan-binding lectin serine protease 2 (Homo sapiens, UniProt O00187), sequence (O00187 445-686 limits assumed): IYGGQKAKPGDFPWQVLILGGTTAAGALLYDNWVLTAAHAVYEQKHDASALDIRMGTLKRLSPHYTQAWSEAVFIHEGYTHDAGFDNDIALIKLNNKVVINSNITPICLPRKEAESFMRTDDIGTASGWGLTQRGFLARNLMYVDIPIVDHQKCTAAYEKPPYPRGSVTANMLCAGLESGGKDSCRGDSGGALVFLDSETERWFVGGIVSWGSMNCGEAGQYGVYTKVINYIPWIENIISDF
Protocol: Recombinant human MASP2 enzyme produced in the HEK 293 cells was diluted in the reaction buffer (50 mM HEPES pH 8,0; 100 mM NaCl; 0,01% CHAPS; 0.5 mM Gluthathione) to the concentration of 20 nM and 25 μl was transferred into each single well of 384-well white microtiter plate (Greiner Bio One 781075). 1 μl of the inhibitor compound solution (dissolved in DMSO, at the corresponding concentration) or pure DMSO as a control was added to the same wells. The enzymatic reaction was initiated by addition of 25 μl of 60 μM solution of the FRET substrate DABCYL-[…]-Glu(EDANS) NH2; (Dabcyl-4-((4-(dimethylamino)phenyl)azo)benzoic acid; Edans-5-[(2-Aminoethyl) amino]naphthalene-1-sulfonyl; custom synthesis by Jerini Peptide Technologies, Berlin) in the reaction buffer. The microtiter plate was incubated for 60-120 min at the temperature of 32 C.

[3] = target: T2, Mannan-binding lectin serine protease 1 (Rattus norvegicus, UniProt Q8CHN8); assay: Biochemical Rat MASP1 Assay
T2 sequence (Q8CHN8 whole entry): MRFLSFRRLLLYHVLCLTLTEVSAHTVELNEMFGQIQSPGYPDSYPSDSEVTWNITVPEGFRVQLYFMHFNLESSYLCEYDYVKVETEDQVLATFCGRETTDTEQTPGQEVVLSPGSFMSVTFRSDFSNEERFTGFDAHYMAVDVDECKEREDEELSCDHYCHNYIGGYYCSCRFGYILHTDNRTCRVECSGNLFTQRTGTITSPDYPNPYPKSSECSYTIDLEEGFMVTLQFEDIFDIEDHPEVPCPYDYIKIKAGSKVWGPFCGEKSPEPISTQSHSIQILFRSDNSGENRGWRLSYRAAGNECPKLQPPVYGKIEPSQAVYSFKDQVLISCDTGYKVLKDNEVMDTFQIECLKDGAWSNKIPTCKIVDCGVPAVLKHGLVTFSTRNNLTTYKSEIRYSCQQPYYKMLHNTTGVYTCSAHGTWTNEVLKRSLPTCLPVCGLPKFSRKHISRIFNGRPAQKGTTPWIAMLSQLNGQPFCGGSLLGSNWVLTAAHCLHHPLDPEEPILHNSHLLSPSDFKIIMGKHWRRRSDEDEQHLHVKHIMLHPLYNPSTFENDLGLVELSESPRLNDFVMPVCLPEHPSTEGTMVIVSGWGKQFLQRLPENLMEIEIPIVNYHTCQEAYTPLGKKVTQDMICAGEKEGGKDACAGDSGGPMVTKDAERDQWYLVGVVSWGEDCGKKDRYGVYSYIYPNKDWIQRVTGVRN
Protocol: Recombinant […] produced in the HEK 293 cells was diluted in the reaction buffer (50 mM HEPES pH 8,0; 100 mM NaCl; 0,01% CHAPS; 0.5 mM Gluthathione) to the concentration of 4 nM and 25 μl was transferred into each single well of 384-well white microtiter plate (Greiner Bio One 781075). 1 μl of the inhibitor compound solution (dissolved in DMSO, at the corresponding concentration) or pure DMSO as a control was added to the same wells. The enzymatic reaction was initiated by addition of 25 μl of 40 μM solution of the FRET substrate Dabcyl-[…]-Glu(Edans)-NH2; (Dabcyl-4-((4-(dimethylamino)phenyl)azo)benzoic acid; Edans-5-[(2-Aminoethyl) amino]naphthalene-1-sulfonyl; custom synthesis by Jerini Peptide Technologies, Berlin) in the reaction buffer. The microtiter plate was incubated for 60-120 min at the temperature of 32 C. The increase of fluorescence intensity was measured in appropriate fluorescence plate reader (e.g. TECAN Ultra) using excitation wavelength of 340 nm and emission wavelength of 490 nm. IC50 values were calculated from percentage of inhibition of rat […] activity as a function of test compound concentration.

[4] = target: Mannan-binding lectin serine protease 2 (Rattus norvegicus, UniProt Q9JJS8); assay: Biochemical Rat MASP2 Assay
Mannan-binding lectin serine protease 2 (Rattus norvegicus, UniProt Q9JJS8), sequence (Q9JJS8 20-443 limits assumed): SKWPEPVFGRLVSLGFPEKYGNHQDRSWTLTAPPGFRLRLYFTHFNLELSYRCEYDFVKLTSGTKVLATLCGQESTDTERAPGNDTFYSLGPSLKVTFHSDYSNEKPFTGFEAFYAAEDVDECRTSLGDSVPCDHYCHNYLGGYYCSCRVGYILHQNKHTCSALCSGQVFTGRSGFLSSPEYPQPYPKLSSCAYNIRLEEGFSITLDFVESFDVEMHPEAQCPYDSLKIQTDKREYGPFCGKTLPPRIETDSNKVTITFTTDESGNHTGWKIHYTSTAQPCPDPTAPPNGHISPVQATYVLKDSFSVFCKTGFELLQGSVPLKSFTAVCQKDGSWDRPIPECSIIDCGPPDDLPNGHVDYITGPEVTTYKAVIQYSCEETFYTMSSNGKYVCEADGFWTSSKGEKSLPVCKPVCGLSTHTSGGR
Mannan-binding lectin serine protease 2 (Rattus norvegicus, UniProt Q9JJS8), sequence (Q9JJS8 444-685 limits assumed): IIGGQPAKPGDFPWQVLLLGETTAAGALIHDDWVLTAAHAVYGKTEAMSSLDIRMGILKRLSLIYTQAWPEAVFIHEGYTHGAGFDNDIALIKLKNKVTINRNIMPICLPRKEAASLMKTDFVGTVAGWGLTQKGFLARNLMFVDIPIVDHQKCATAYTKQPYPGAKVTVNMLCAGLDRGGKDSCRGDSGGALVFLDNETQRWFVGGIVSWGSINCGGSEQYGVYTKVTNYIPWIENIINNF
Protocol: 1 μl of the inhibitor compound solution (dissolved in DMSO, at the corresponding concentration) or pure DMSO as a control was added to the same wells. The enzymatic reaction was initiated by addition of 25 μl of 30 μM solution of the FRET substrate Abz-IEGRTSED-(Lys)Dnp-NH2; (ABZ-2-aminobenzoyl; DNP-2,4-dinitrophenyl; custom synthesis by Jerini Peptide Technologies, Berlin) in the reaction buffer. The microtiter plate was incubated for 60-120 min at the temperature of 32 C. The increase of fluorescence intensity was measured in appropriate fluorescence plate reader (e.g. TECAN Ultra) using excitation wavelength of 320 nm and emission wavelength of 420 nm. IC50 values were calculated from percentage of inhibition of rat […] activity as a function of test compound concentration.

Row | SMILES | IC50 [1] [nM] | IC50 [2] [nM] | IC50 [3] [nM] | IC50 [4] [nM]
1 | CC[C@H](C)[C@@H]1NC(=O)CNC(=O)CNC(=O)[C@H](C)NC(=O)[C@H](CC(=O)O)NC(=O)[C@@H]2CCCN2C(=O)[C@H]([C@@H](C)CC)NC(=O)[C@H]2NC(=O)[C@H]([C@@H](C)CC)NC(=O)[C@@H]3C[C@@H]4CCCC[C@@H]4N3C(=O)[C@@H]3CCCN3C(=O)[C@H](CC(C)C)NC(=O)[C@H](CO)NC(=O)[C@H](CCCNC(=N)N)NC(=O)[C@H](CO)NC(=O)[C@H](CSSC2(C)C)NC1=O [US20240010684, Ex. No 92] (cyclo(AGGICSRSLP[Oic]I[Pen]IPD); disulfide 5-13) | 8.4 | 77 | 170 | 41
2 | CC[C@H](C)[C@@H]1NC(=O)CNC(=O)CNC(=O)[C@H](C)NC(=O)[C@@H](CC(=O)O)NC(=O)[C@@H]2CCCN2C(=O)[C@H]([C@@H](C)CC)NC(=O)[C@H]2NC(=O)[C@H]([C@@H](C)CC)NC(=O)[C@@H]3C[C@@H]4CCCC[C@@H]4N3C(=O)[C@@H]3CCCN3C(=O)[C@H](CC(C)C)NC(=O)[C@H](CO)NC(=O)[C@H](CCCNC(=N)N)NC(=O)[C@H](CO)NC(=O)[C@H](CSSC2(C)C)NC1=O [US20240010684, Ex. No 98] (cyclo(AGGICSRSLP[Oic]I[Pen]IP[dD]); disulfide 5-13) | 19 | 160 | 170 | 
3 | CC[C@H](C)[C@@H]1NC(=O)[C@@H]2CCCN2C(=O)[C@@H]2CCCN2C(=O)[C@H]([C@@H](C)CC)NC(=O)[C@H](CO)NC(=O)[C@H](CCCCN)NC(=O)[C@H]([C@@H](C)O)NC(=O)[C@@H]2CSSC[C@H](NC1=O)C(=O)N[C@@H](Cc1ccccc1)C(=O)N1CCC[C@H]1C(=O)N[C@@H](CC(=O)O)C(=O)NCC(=O)N[C@@H](CCCNC(=N)N)C(=O)N2 [US20240010684, Ref. No 2] | > 3000 | > 3000 |  | 1000
